Measured values: patent US20260070945A1, “MACROCYCLIC IMMUNOMODULATORS” (Bristol-Myers Squibb Company, priority 2022, published 2026)
Read-outs that look alike come from different tables or passages of the source. *1 amine or outer side, *2 acyl side, *3 side chain or, on linkers, in order; H or OH if unused. Where a SMILES comes first, the peptide text is derived from it. Bridges are numbered along the chain shown (N, C = ends). [ ]: non-standard residue; d: D form. The star is where a group is joined. ξ: configuration not given here. Phe(4-COOH) = N[C@@H](Cc1ccc(C(=O)O)cc1)C(=O)O; Bip = N[C@@H](Cc1ccc(-c2ccccc2)cc1)C(=O)O; Phe(3-Me) = Cc1cccc(C[C@H](N)C(=O)O)c1; γGlu = O=C(O)[C@H](CCC(=O)[*:2])N[*:1]; Val(3-OH) = CC(C)(O)[C@H](N)C(=O)O; 4Pal = N[C@@H](Cc1ccncc1)C(=O)O; Cha = N[C@@H](CC1CCCCC1)C(=O)O; Cit = NC(=O)NCCC[C@H](N)C(=O)O; Thr(3ξ) = CC(O)[C@H](N)C(=O)O; Carboxymethyl = O=C(O)C*; NMeA = CN[C@@H](C)C(=O)O; Orn = NCCC[C@H](N)C(=O)O; Aun = NCCCCCCCCCCC(=O)O; Dab = NCC[C@H](N)C(=O)O; Dap = NC[C@H](N)C(=O)O; AEEA = NCCOCCOCC(=O)O

Target: T1, PD-1/PD-L1 interaction (PE-labeled human PD-L1-Ig binding to Jurkat cell line over-expressing human PD-1) (Homo sapiens, UniProt Q15116)
T1 construct: expressed in transfected cells; host or cells: Jurkat
Test: Jurkat-PD-1 Cell Binding High-Content Screening Assay (CBA)
Outline: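 Binding of 20 nM (final) PE-tagged PD-L1-Ig to compound-pretreated Jurkat-hPD-1 cells was measured by high-content imaging after 1 h. Pretreatment ran 2 h at 37 °C in DMEM with 10% fetal calf serum.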

[1] = Jurkat-hPD-1 cells, PE-labeled PD-L1-Ig 20 nM final; read-out: Jurkat HPD1 PDL1 IC50

T1 sequence (Q15116 25-288): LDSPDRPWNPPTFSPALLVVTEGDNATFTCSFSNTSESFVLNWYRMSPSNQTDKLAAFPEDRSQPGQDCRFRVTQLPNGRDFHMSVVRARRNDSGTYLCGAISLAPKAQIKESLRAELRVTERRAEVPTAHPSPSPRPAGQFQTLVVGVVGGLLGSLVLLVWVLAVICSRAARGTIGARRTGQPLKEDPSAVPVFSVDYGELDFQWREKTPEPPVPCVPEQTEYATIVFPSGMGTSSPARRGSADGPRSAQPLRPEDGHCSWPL

Structure (SMILES): Cc1cccc(C[C@@H]2NC(=O)[C@H](CC(=O)O)NC(=O)[C@H](Cc3ccc(OCC(=O)O)cc3)NC(=O)[C@H](CN)NC(=O)CSC[C@@H](C(=O)N[C@@H](CCN)C(=O)NCCCCCCCCCCC(=O)O)NC(=O)[C@H](CCCN)NC(=O)[C@H](C(C)C)NC(=O)[C@H](CC(C)C)NC(=O)[C@H](CCN)NC(=O)[C@@H](CC(C)C)NC(=O)[C@H](C)N(C)C(=O)[C@H](Cc3ccc(O)cc3)NC(=O)[C@H](Cc3ccc(-c4ccccc4)cc3)NC(=O)[C@H](Cc3ccc(O)cc3)NC2=O)c1 [Example 1255] ({CH2CO}-[Dap]Y(Carboxymethyl)D[Phe(3-Me)]Y[Bip]Y[NMeA][dL][Dab]LV[Orn]C[Dab][Aun]-OH; thioether N-14)
- IC50 [1]: 206 nM

Structure (SMILES): CC(C)C[C@@H]1NC(=O)[C@H](Cc2c[nH]c3ccccc23)NC(=O)[C@H](CC(=O)O)NC(=O)[C@H](Cc2ccncc2)NC(=O)[C@H](Cc2ccc(OCC(=O)O)cc2)NC(=O)CSC[C@@H](C(=O)NCC(=O)NCCOCCOCC(=O)N[C@@H](CCCCN)C(=O)NCCCCCCCCCCC(=O)O)NC(=O)[C@H](CCCNC(N)=O)NC(=O)[C@H](C(C)C)NC(=O)[C@H](CC2CCCCC2)NC(=O)[C@H](CCN)NC(=O)[C@@H](CC(C)C)NC(=O)[C@H](C)N(C)C(=O)[C@H](C(C)C)NC(=O)[C@H](Cc2ccc(-c3ccccc3)cc2)NC1=O [Example 2172] ({CH2CO}-Y(Carboxymethyl)[4Pal]DWL[Bip]V[NMeA][dL][Dab][Cha]V[Cit]CG[AEEA]K[Aun]-OH; thioether N-14)
- IC50 [1]: 13 nM

Structure (SMILES): Cc1cccc(C[C@@H]2NC(=O)[C@H](CC(=O)O)NC(=O)[C@H](Cc3ccc(C(=O)O)cc3)NC(=O)[C@H](C(C)O)NC(=O)CSC[C@@H](C(=O)N[C@@H](CCN)C(=O)NCCOCCOCC(=O)NCCCCCCCCCCC(=O)O)NC(=O)[C@H](Cc3cnc[nH]3)NC(=O)[C@H](C(C)(C)O)NC(=O)[C@H](CC3CCCCC3)NC(=O)[C@H](CCN)NC(=O)[C@@H](CC(C)C)NC(=O)[C@H](C)N(C)C(=O)[C@H](Cc3ccc(C(=O)O)cc3)NC(=O)[C@H](Cc3ccc(-c4ccccc4)cc3)NC(=O)[C@H](Cc3ccc(C(=O)O)cc3)NC2=O)c1 (stereo partly drawn) [Example 2545] ({CH2CO}-[Thr(3ξ)][Phe(4-COOH)]D[Phe(3-Me)][Phe(4-COOH)][Bip][Phe(4-COOH)][NMeA][dL][Dab][Cha][Val(3-OH)]HC[Dab][AEEA][Aun]-OH; thioether N-14)
- IC50 (PE-labeled PD-L1-Ig 20 nM final, Jurkat-hPD-1 cells; read-out: Jurkat HPD1 PDL1 IC50): 13.1 nM

Structure (SMILES): CC(C)C[C@@H]1NC(=O)[C@H](Cc2c[nH]c3ccccc23)NC(=O)[C@H](CC(=O)O)NC(=O)[C@H](Cc2ccc(C(=O)O)cc2)NC(=O)[C@H](Cc2ccc(OCC(=O)O)cc2)NC(=O)CSC[C@@H](C(=O)N[C@@H](CCCN)C(=O)NCCOCCOCC(=O)NCCCCCCCCCCC(=O)O)NC(=O)[C@H](CCCCN)NC(=O)[C@H](C(C)C)NC(=O)[C@H](CC2CCCCC2)NC(=O)[C@H](CCC(=O)O)NC(=O)[C@@H](CC(C)C)NC(=O)[C@H](C)N(C)C(=O)[C@H](C(C)C)NC(=O)[C@H](Cc2ccc(-c3ccccc3)cc2)NC1=O [Example 2137] ({CH2CO}-Y(Carboxymethyl)[Phe(4-COOH)]DWL[Bip]V[NMeA][dL]E[Cha]VKC[Orn][AEEA][Aun]-OH; thioether N-14)
- IC50 [1]: 30.4 nM

Structure (SMILES): Cc1cccc(C[C@@H]2NC(=O)[C@H](CC(=O)O)NC(=O)[C@H](Cc3ccc(C(=O)O)cc3)NC(=O)[C@H](Cc3ccc(OCC(=O)O)cc3)NC(=O)CSC[C@@H](C(=O)NCC(=O)N[C@@H](CCC(=O)O)C(=O)NCCOCCOCC(=O)N[C@@H](CCC(=O)NCCCCCCCCCCC(=O)O)C(=O)O)NC(=O)[C@H](CO)NC(=O)[C@H](C(C)C)NC(=O)[C@H](CC(C)C)NC(=O)[C@H](CC(N)=O)NC(=O)[C@@H](CC(C)C)NC(=O)[C@H](C)N(C)C(=O)[C@H](C(C)C)NC(=O)[C@H](Cc3ccc(-c4ccccc4)cc3)NC(=O)[C@H](CC(C)C)NC2=O)c1 [Example 1013] ({CH2CO}-Y(Carboxymethyl)[Phe(4-COOH)]D[Phe(3-Me)]L[Bip]V[NMeA][dL]NLVSCGE[AEEA][γGlu][Aun]-OH; thioether N-14)
- IC50 [1]: 36.5 nM
